Source: patent publication US9365540B2, “Benzimidazole derivatives as MCH receptor antagonists” (Takeda Pharmaceutical Company Limited, priority 2012, dated 2016)
Where a name gives a salt, the structure may show the parent alone. Read-outs that look alike come from different tables or passages of the source.

Tests used:
[1] = target: T1, human MCH receptor 1 (MCHR1) (Homo sapiens, UniProt Q99705); experiment: human MCH receptor 1 (MCHR1) competitive binding assay with [125I]-MCH(4-19); details: test compound 0.1 μM, human MCHR1-expressing CHO cell membrane fraction; for inhibition at 0.1 µM: read-out: Binding inhibition rate % (0.1 μM)
T1 construct: expressed in transfected cells; host or cells: CHO cell clone 57 (membrane fraction)
T1 sequence (Q99705 whole entry): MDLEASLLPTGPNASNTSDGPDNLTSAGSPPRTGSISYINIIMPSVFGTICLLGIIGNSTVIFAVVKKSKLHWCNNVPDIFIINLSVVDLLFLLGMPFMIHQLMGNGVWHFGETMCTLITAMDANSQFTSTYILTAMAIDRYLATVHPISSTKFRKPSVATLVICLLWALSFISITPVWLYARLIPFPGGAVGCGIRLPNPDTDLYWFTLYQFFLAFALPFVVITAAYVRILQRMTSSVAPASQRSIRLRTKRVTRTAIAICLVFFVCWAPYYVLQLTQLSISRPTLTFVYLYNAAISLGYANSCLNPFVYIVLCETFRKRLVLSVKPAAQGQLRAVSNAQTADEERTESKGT
Outline: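 Membranes from CHO cells expressing human MCHR1 incubated with [125I]-MCH(4-19) and test compound in 20 mM Tris-HCl pH 7.5/5 mM EDTA with protease inhibitors, 1 hr at room temperature. Bound radioactivity collected on PEI-treated GF/C filters; % inhibition at 0.1 μM compound, nonspecific binding set with cold MCH(1-19).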

human MCHR1 = target: T2, human MCHR1 (Homo sapiens, UniProt Q99705); experiment: MCH receptor 1 antagonistic activity, Ca2+ mobilization assay; format: cell-based; details: for Inhibitory rate % (0.1 μM): hydrochloride; for inhibition at 0.1 µM: CHO, read-out: Inhibitory rate % (0.1 μM)
T2 construct: expressed in transfected cells; host or cells: CHO dhfr- cells, clone #4
T2 sequence (Q99705 whole entry): as above
Procedure: Measurement of MCH Receptor 1 Antagonistic Activity of Test Compound Using Ca^2+ Mobilization Assay Using an expression vector plasmid introduced with human MCHR1 gene for expression in animal cells, human MCHR1 gene was introduced into CHO cells (CHO dhfr^−) by Lipofectamine LTX (Invitrogen). The cells were cultured in selection MEMα medium [445 mL of MEMα medium without nucleic acid and added with 5 mL of Penicillin-Streptomycin (Invitrogen) and 50 mL of dialyzed fetal bovine serum]. Colony 24 clones grown in the selection medium, which were human MCHR1 gene-expressing CHO cell candidates, were selected. […] In the following test, this human MCHR1-expressing CHO cell (clone #4) was used. An integrated dispensing function fluorometer (CellLux, PerkinElmer) was used for Ca^2+ mobilization assay. […] The medium was removed, and the cells were washed with phosphate buffered saline (PBS). […] The plate was set on a plate reader. […] The inhibition rates (%) of test compounds (0.1 μM) as antagonist activity measured using human MCHR1-expressing CHO cells (clone #4) are shown in the following Table 3.

[2] = test compound 0.1 μM, human MCHR1-expressing CHO cells (clone #4), ligand MCH(4-19) 2 nM

| inhibition at 0.1 µM [1] | Inhibitory rate % (0.1 μM) (human MCHR1; [2]) | Binding inhibition rate % (0.1 μM) ([1]; hydrochloride, 0.1 µM) | inhibition at 0.1 µM (human MCHR1; [2]) | SMILES | inhibition at 0.1 µM (human MCHR1) |
| --- | --- | --- | --- | --- | --- |
| 38% | – | – | 72% | Cn1c(C2CC2)nc2ccc(-n3ccc(COc4ccc(F)cc4)cc3=O)cc21 [Example 243, 1-(2-Cyclopropyl-1-methyl-1H-benzimidazol-6-yl)-4-((4-fluorophenoxy)methyl)pyridin-2(1H)-one] | – |
| 83% | – | – | 98% | Cn1c(C2CC2)nc2ccc(-n3ccc(OCc4cc(Br)c(F)s4)cc3=O)cc21 [Example 244, 4-((4-Bromo-5-fluoro-2-thienyl)methoxy)-1-(2-cyclopropyl-1-methyl-1H-benzimidazol-6-yl)pyridin-2(1H)-one] | – |
| 92% | – | – | 100% | Cn1c(C2CC2)nc2ccc(-n3ccc(OCc4csc(Br)c4)cc3=O)cc21 [Example 250, 4-((5-Bromo-3-thienyl)methoxy)-1-(2-cyclopropyl-1-methyl-1H-benzimidazol-6-yl)pyridin-2(1H)-one] | – |
| 55% | – | – | 77% | Cn1c(C2CC2)nc2ccc(-n3ccc(OCc4nc(C5CC5)cs4)cc3=O)cc21 [Example 277, 1-(2-Cyclopropyl-1-methyl-1H-benzimidazol-6-yl)-4-((4-cyclopropyl-1,3-thiazol-2-yl)methoxy)pyridin-2(1H)-one] | – |
| 56% | – | – | 99% | Cn1c(C2CC2)nc2ccc(-n3ccc(OCc4nc(C(F)F)cs4)cc3=O)cc21 [Example 283, 1-(2-Cyclopropyl-1-methyl-1H-benzimidazol-6-yl)-4-((4-(difluoromethyl)-1,3-thiazol-2-yl)methoxy)pyridin-2(1H)-one] | – |
| 37% | – | – | 83% | CCc1nc2ccc(-n3ccc(OCc4nc(C(F)F)cs4)cc3=O)cc2n1C [Example 284, 4-((4-(Difluoromethyl)-1,3-thiazol-2-yl)methoxy)-1-(2-ethyl-1-methyl-1H-benzimidazol-6-yl)pyridin-2(1H)-one] | – |
| 36% | – | – | 58% | Cn1c(C2CC2)nc2ccc(-n3ccc(OCc4csc(C5CC5)n4)cc3=O)cc21 [Example 285, 1-(2-Cyclopropyl-1-methyl-1H-benzimidazol-6-yl)-4-((2-cyclopropyl-1,3-thiazol-4-yl)methoxy)pyridin-2(1H)-one] | – |
| 40% | – | – | 87% | CCc1nc2ccc(-n3ccc(OCc4csc(C(F)F)n4)cc3=O)cc2n1C [Example 288, 4-((2-(Difluoromethyl)-1,3-thiazol-4-yl)methoxy)-1-(2-ethyl-1-methyl-1H-benzimidazol-6-yl)pyridin-2(1H)-one] | – |
| 48% | – | – | 100% | Cc1nc2ccc(-n3ccc(OCc4ccccc4)cc3=O)cc2n1C [Example 289, 4-(Benzyloxy)-1-(1,2-dimethyl-1H-benzimidazol-6-yl)pyridin-2(1H)-one] | – |

Continued, molecule first:

| SMILES | inhibition at 0.1 µM [1] | Inhibitory rate % (0.1 μM) (human MCHR1; [2]) | Binding inhibition rate % (0.1 μM) ([1]; hydrochloride, 0.1 µM) | inhibition at 0.1 µM (human MCHR1; [2]) | inhibition at 0.1 µM (human MCHR1) |
| --- | --- | --- | --- | --- | --- |
| Cn1c(C2CC2C#N)nc2ccc(-n3ccc(OCc4ccc(Cl)cc4)cc3=O)cc21 (stereo not drawn) [Example 237, (1R*,2S*)-2-(6-(4-((4-Chlorobenzyl)oxy)-2-oxopyridin-1(2H)-yl)-1-methyl-1H-benzimidazol-2-yl)cyclopropanecarbonitrile hydrochloride] | 78% | 67% | – | – | – |
| Cn1c(C2CC2C#N)nc2ccc(-n3ccc(OCc4ccc(Cl)cc4)cc3=O)cc21 (stereo not drawn) [Example 238, (1R*,2S*)-2-(6-(4-((4-Chlorobenzyl)oxy)-2-oxopyridin-1(2H)-yl)-1-methyl-1H-benzimidazol-2-yl)cyclopropanecarbonitrile hydrochloride] | – | 42% | 65% | – | – |
| Cn1c(C2CC2)nc2ccc(-n3ccc(OCc4cc(F)c(F)s4)cc3=O)cc21 [Example 239, 1-(2-Cyclopropyl-1-methyl-1H-benzimidazol-6-yl)-4-((4,5-difluoro-2-thienyl)methoxy)pyridin-2(1H)-one] | 74% | – | – | 92% | – |
| Cn1c(C2CC2)nc2ccc(-n3ccc(OCc4cc(Br)cs4)cc3=O)cc21 [Example 240, 4-((4-Bromo-2-thienyl)methoxy)-1-(2-cyclopropyl-1-methyl-1H-benzimidazol-6-yl)pyridin-2(1H)-one] | 91% | – | – | 99% | – |
| Cn1c(C2CC2)nc2ccc(-n3ccc(OCc4ccc(C(F)(F)F)o4)cc3=O)cc21 [Example 241, 1-(2-Cyclopropyl-1-methyl-1H-benzimidazol-6-yl)-4-((5-(trifluoromethyl)-2-furyl)methoxy)pyridin-2(1H)-one] | 56% | – | – | 76% | – |
| Cn1c(C2CC2)nc2ccc(-n3ccc(COc4ccc(Cl)cc4)cc3=O)cc21 [Example 245, 4-((4-Chlorophenoxy)methyl)-1-(2-cyclopropyl-1-methyl-1H-benzimidazol-6-yl)pyridin-2(1H)-one] | 59% | – | – | 58% | – |
| Cn1c(C2CC2)nc2ccc(-n3ccc(OCc4ccc(C(F)F)s4)cc3=O)cc21 [Example 248, 1-(2-Cyclopropyl-1-methyl-1H-benzimidazol-6-yl)-4-((5-(difluoromethyl)-2-thienyl)methoxy)pyridin-2(1H)-one] | 79% | – | – | 97% | – |
| Cn1c(C2CC2)nc2ccc(-n3ccc(OCc4nc(C(F)(F)F)cs4)cc3=O)cc21 [Example 256, 1-(2-Cyclopropyl-1-methyl-1H-benzimidazol-6-yl)-4-((4-(trifluoromethyl)-1,3-thiazol-2-yl)methoxy)pyridin-2(^1H)-one] | 70% | – | – | 97% | – |
| Cn1c(C2CC2)nc2ccc(-n3ccc(OCc4ccc(Br)o4)cc3=O)cc21 [Example 259, 4-((5-Bromo-2-furyl)methoxy)-1-(2-cyclopropyl-1-methyl-1H-benzimidazol-6-yl)pyridin-2(1H)-one] | 70% | – | – | 100% | – |
| Cn1c(C2CC2)nc2ccc(-n3ccc(OCc4ccc(Br)cn4)cc3=O)cc21 [Example 260, 4-((5-Bromopyridin-2-yl)methoxy)-1-(2-cyclopropyl-1-methyl-1H-benzimidazol-6-yl)pyridin-2(1H)-one] | 75% | – | – | 104% | – |
| CCc1nc2ccc(-n3ccc(OCc4nc(C(F)(F)F)cs4)cc3=O)cc2n1C [Example 261, 1-(2-Ethyl-1-methyl-1H-benzimidazol-6-yl)-4-((4-(trifluoromethyl)-1,3-thiazol-2-yl)methoxy)pyridin-2(1H)-one] | 57% | – | – | 100% | – |
| Cn1c(C2CC2)nc2ccc(-n3ccc(OCc4coc(Br)c4)cc3=O)cc21 [Example 262, 4-((5-Bromo-3-furyl)methoxy)-1-(2-cyclopropyl-1-methyl-1H-benzimidazol-6-yl)pyridin-2(1H)-one] | 80% | – | – | 98% | – |
| Cc1c(C2CC2)nc2ccc(-n3ccc(OCc4ccccn4)cc3=O)cn12 [Example 263, 1-(2-Cyclopropyl-3-methylimidazo[1,2-a]pyridin-6-yl)-4-(pyridin-2-ylmethoxy)pyridin-2(1H)-one hydrochloride] | 30% | – | – | – | 52% |
| CCc1nc2ccc(-n3ccc(OCc4csc(C(F)(F)F)c4)cc3=O)cc2n1C [Example 265, 1-(2-Ethyl-1-methyl-1H-benzimidazol-6-yl)-4-((5-(trifluoromethyl)-3-thienyl)methoxy)pyridin-2(1H)-one] | 61% | – | – | 97% | – |
| Cc1csc(COc2ccn(-c3ccc4nc(C5CC5)n(C)c4c3)c(=O)c2)n1 [Example 268, 1-(2-Cyclopropyl-1-methyl-1H-benzimidazol-6-yl)-4-((4-methyl-1,3-thiazol-2-yl)methoxy)pyridin-2(1H)-one] | 66% | – | – | 86% | – |
| Cn1c(C2CC2)nc2ccc(-n3ccc(OCc4nc(CF)cs4)cc3=O)cc21 [Example 270, 1-(2-Cyclopropyl-1-methyl-1H-benzimidazol-6-yl)-4-((4-(fluoromethyl)-1,3-thiazol-2-yl)methoxy)pyridin-2(1H)-one] | 58% | – | – | 73% | – |
| Cc1nc2ccc(-n3ccc(OCc4cc(C(F)(F)F)cs4)cc3=O)cc2n1C [Example 286, 1-(1,2-Dimethyl-1H-benzimidazol-6-yl)-4-((4-(trifluoromethyl)thiophen-2-yl)methoxy)pyridin-2(1H)-one] | 58% | – | – | 100% | – |
| Cn1c(C2CC2)nc2ccc(-n3ccc(OCc4csc(C(F)F)n4)cc3=O)cc21 [Example 287, 1-(2-Cyclopropyl-1-methyl-1H-benzimidazol-6-yl)-4-((2-(difluoromethyl)-1,3-thiazol-4-yl)methoxy)pyridin-2(^1H)-one] | 47% | – | – | 95% | – |
